# Test results published in patent publication US11497212B2, “Substituted thiophenyl uracils, salts thereof and the use thereof as herbicidal agents” (Syngenta Crop Protection AG, priority 2017, dated 2022).
# Tested on: Zea mays
# Experiment: Crop compatibility pre-emergence (greenhouse pot trial)
# Format: in vivo
# Settings: application rate 20 g/ha, effect vs untreated controls
# In short: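 Seeds sown in pots and covered with soil; compounds formulated as WP or EC applied pre-emergence to the soil surface as aqueous suspension/emulsion with 0.5% additive at 600 L/ha water. Plants kept in greenhouse; crop damage scored visually after about 3 weeks as % versus untreated controls (0% = like control, 100% = dead).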
row,Zea mays (Efficacy in %) [%],SMILES
1,0,CCOCCOC(=O)C(C)Sc1cc(-n2c(=O)cc(C(F)(F)F)n(C)c2=O)c(F)cc1Cl (stereo not shown) [I.1-2]

# Tested on: Amaranthus retroflexus
# Experiment: Herbicidal action pre-emergence (greenhouse pot trial)
# Format: in vivo
# Settings: application rate 320 g/ha, scored after about 3 weeks
# In short: (§1)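 Application rates of 320 g/ha or lower were used, with compounds delivered onto covering soil before weed emergence. After roughly three weeks in the greenhouse, damage was judged by eye as a percentage versus untreated plants.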
row,SMILES,Amaranthus retroflexus (Efficacy in %) [%]
1,CCOCCOC(=O)C(C)Sc1cc(-n2c(=O)cc(C(F)(F)F)n(C)c2=O)c(F)cc1Cl (stereo not shown) [I.1-2],100

# Tested on: Setaria viridis
# Experiment: as above
# Format: in vivo
# Settings: application rate 320 g/ha, scored after about 3 weeks
# In short: as §1
row,SMILES,Setaria viridis (Efficacy in %) [%]
1,CCOCCOC(=O)C(C)Sc1cc(-n2c(=O)cc(C(F)(F)F)n(C)c2=O)c(F)cc1Cl (stereo not shown) [I.1-2],100

# Tested on: Veronica persica
# Experiment: as above
# Format: in vivo
# Settings: application rate 320 g/ha
# In short: as §1
row,SMILES,Veronica persica (Efficacy in %) [%]
1,CCOCCOC(=O)C(C)Sc1cc(-n2c(=O)cc(C(F)(F)F)n(C)c2=O)c(F)cc1Cl (stereo not shown) [I.1-2],100

# Tested on: Avena fatua
# Experiment: as above
# Format: in vivo
# Settings: application rate 320 g/ha
# In short: as §1
row,SMILES,Avena fatua (Efficacy in %) [%]
1,CCOCCOC(=O)C(C)Sc1cc(-n2c(=O)cc(C(F)(F)F)n(C)c2=O)c(F)cc1Cl (stereo not shown) [I.1-2],90

# Tested on: Abutilon theophrasti
# Experiment: as above
# Format: in vivo
# Settings: application rate 320 g/ha, scored after about 3 weeks
# In short: as §1
row,SMILES,Abutilon theophrasti (Efficacy in %) [%]
1,CCOCCOC(=O)C(C)Sc1cc(-n2c(=O)cc(C(F)(F)F)n(C)c2=O)c(F)cc1Cl (stereo not shown) [I.1-2],100

# Tested on: Matricaria inodora
# Experiment: as above
# Format: in vivo
# Settings: application rate 320 g/ha, scored after about 3 weeks
# In short: as §1
row,SMILES,Matricaria inodora (Efficacy in %) [%]
1,CCOCCOC(=O)C(C)Sc1cc(-n2c(=O)cc(C(F)(F)F)n(C)c2=O)c(F)cc1Cl (stereo not shown) [I.1-2],100

# Tested on: Echinochloa crus-galli
# Experiment: as above
# Format: in vivo
# Settings: application rate 320 g/ha, scored after about 3 weeks
# In short: as §1
row,SMILES,Echinochloa crus-galli (Efficacy in %) [%]
1,CCOCCOC(=O)C(C)Sc1cc(-n2c(=O)cc(C(F)(F)F)n(C)c2=O)c(F)cc1Cl (stereo not shown) [I.1-2],100

# Tested on: Viola tricolor
# Experiment: as above
# Format: in vivo
# Settings: application rate 320 g/ha, scored after about 3 weeks
# In short: as §1
row,SMILES,Viola tricolor (Efficacy in %) [%]
1,CCOCCOC(=O)C(C)Sc1cc(-n2c(=O)cc(C(F)(F)F)n(C)c2=O)c(F)cc1Cl (stereo not shown) [I.1-2],100

# Tested on: Alopecurus myosuroides
# Experiment: as above
# Format: in vivo
# Settings: application rate 320 g/ha, scored after about 3 weeks
# In short: as §1
row,SMILES,Alopecurus myosuroides (Efficacy in %) [%]
1,CCOCCOC(=O)C(C)Sc1cc(-n2c(=O)cc(C(F)(F)F)n(C)c2=O)c(F)cc1Cl (stereo not shown) [I.1-2],80

# Tested on: Lolium rigidum
# Experiment: as above
# Format: in vivo
# Settings: application rate 320 g/ha
# In short: as §1
row,SMILES,Lolium rigidum (Efficacy in %) [%]
1,CCOCCOC(=O)C(C)Sc1cc(-n2c(=O)cc(C(F)(F)F)n(C)c2=O)c(F)cc1Cl (stereo not shown) [I.1-2],90

# Tested on: Digitaria sanguinalis
# Experiment: as above
# Format: in vivo
# Settings: application rate 80 g/ha
# In short: as §1
row,SMILES,Digitaria sanguinalis (Efficacy in %) [%]
1,CCOCCOC(=O)C(C)Sc1cc(-n2c(=O)cc(C(F)(F)F)n(C)c2=O)c(F)cc1Cl (stereo not shown) [I.1-2],100

# Tested on: Stellaria media
# Experiment: as above
# Format: in vivo
# Settings: application rate 320 g/ha, scored after about 3 weeks
# In short: as §1
row,SMILES,Stellaria media (Efficacy in %) [%]
1,CCOCCOC(=O)C(C)Sc1cc(-n2c(=O)cc(C(F)(F)F)n(C)c2=O)c(F)cc1Cl (stereo not shown) [I.1-2],100

# Tested on: Pharbitis purpurea
# Experiment: as above
# Format: in vivo
# Settings: application rate 320 g/ha
# In short: as §1
row,SMILES,Pharbitis purpurea (Efficacy in %) [%]
1,CCOCCOC(=O)C(C)Sc1cc(-n2c(=O)cc(C(F)(F)F)n(C)c2=O)c(F)cc1Cl (stereo not shown) [I.1-2],100

# Tested on: Triticum aestivum
# Experiment: Crop compatibility post-emergence (greenhouse pot trial)
# Format: in vivo
# Settings: application rate 5 g/ha
# In short: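 Greenhouse pot trial: sandy loam, sown seeds, treatment at one-leaf stage 2–3 wk after sowing. Spray: aqueous WP/EC preparation, 0.5% additive, 600 L/ha. Readout: visual % effect after ~3 wk relative to untreated plants.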
row,Triticum aestivum (Efficacy in %) [%],SMILES
1,20,CCOCCOC(=O)C(C)Sc1cc(-n2c(=O)cc(C(F)(F)F)n(C)c2=O)c(F)cc1Cl (stereo not shown) [I.1-2]

# Tested on: Amaranthus retroflexus
# Experiment: Herbicidal action post-emergence (greenhouse pot trial)
# Format: in vivo
# Settings: application rate 80 g/ha, scored visually after about 3 weeks vs untreated controls
# In short: (§2)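 Sowing in sandy loam, then 2–3 weeks of controlled greenhouse growth. Next, one-leaf-stage plants received a foliar spray of the WP- or EC-formulated compound with 0.5% additive (600 L/ha water, application rate of 80 g/ha or below). Finally, after about 3 weeks under optimal conditions, effect was judged by eye against controls.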
row,SMILES,Amaranthus retroflexus (Efficacy in %) [%]
1,CCOCCOC(=O)C(C)Sc1cc(-n2c(=O)cc(C(F)(F)F)n(C)c2=O)c(F)cc1Cl (stereo not shown) [I.1-2],100

# Tested on: Setaria viridis
# Experiment: as above
# Format: in vivo
# Settings: application rate 80 g/ha, scored visually after about 3 weeks vs untreated controls
# In short: as §2
row,SMILES,Setaria viridis (Efficacy in %) [%]
1,CCOCCOC(=O)C(C)Sc1cc(-n2c(=O)cc(C(F)(F)F)n(C)c2=O)c(F)cc1Cl (stereo not shown) [I.1-2],100

# Tested on: Veronica persica
# Experiment: as above
# Format: in vivo
# Settings: application rate 80 g/ha
# In short: as §2
row,SMILES,Veronica persica (Efficacy in %) [%]
1,CCOCCOC(=O)C(C)Sc1cc(-n2c(=O)cc(C(F)(F)F)n(C)c2=O)c(F)cc1Cl (stereo not shown) [I.1-2],100

# Tested on: Abutilon theophrasti
# Experiment: as above
# Format: in vivo
# Settings: application rate 80 g/ha, scored visually after about 3 weeks vs untreated controls
# In short: as §2
row,SMILES,Abutilon theophrasti (Efficacy in %) [%]
1,CCOCCOC(=O)C(C)Sc1cc(-n2c(=O)cc(C(F)(F)F)n(C)c2=O)c(F)cc1Cl (stereo not shown) [I.1-2],100

# Tested on: Polygonum convolvulus
# Experiment: as above
# Format: in vivo
# Settings: application rate 80 g/ha, scored visually after about 3 weeks vs untreated controls
# In short: as §2
row,SMILES,Polygonum convolvulus (Efficacy in %) [%]
1,CCOCCOC(=O)C(C)Sc1cc(-n2c(=O)cc(C(F)(F)F)n(C)c2=O)c(F)cc1Cl (stereo not shown) [I.1-2],100

# Tested on: Matricaria inodora
# Experiment: as above
# Format: in vivo
# Settings: application rate 80 g/ha, scored visually after about 3 weeks vs untreated controls
# In short: as §2
row,SMILES,Matricaria inodora (Efficacy in %) [%]
1,CCOCCOC(=O)C(C)Sc1cc(-n2c(=O)cc(C(F)(F)F)n(C)c2=O)c(F)cc1Cl (stereo not shown) [I.1-2],100

# Tested on: Echinochloa crus-galli
# Experiment: as above
# Format: in vivo
# Settings: application rate 80 g/ha, scored visually after about 3 weeks vs untreated controls
# In short: as §2
row,SMILES,Echinochloa crus-galli (Efficacy in %) [%]
1,CCOCCOC(=O)C(C)Sc1cc(-n2c(=O)cc(C(F)(F)F)n(C)c2=O)c(F)cc1Cl (stereo not shown) [I.1-2],100

# Tested on: Viola tricolor
# Experiment: as above
# Format: in vivo
# Settings: application rate 80 g/ha
# In short: as §2
row,SMILES,Viola tricolor (Efficacy in %) [%]
1,CCOCCOC(=O)C(C)Sc1cc(-n2c(=O)cc(C(F)(F)F)n(C)c2=O)c(F)cc1Cl (stereo not shown) [I.1-2],100

# Tested on: Alopecurus myosuroides
# Experiment: as above
# Format: in vivo
# Settings: application rate 80 g/ha, scored visually after about 3 weeks vs untreated controls
# In short: as §2
row,SMILES,Alopecurus myosuroides (Efficacy in %) [%]
1,CCOCCOC(=O)C(C)Sc1cc(-n2c(=O)cc(C(F)(F)F)n(C)c2=O)c(F)cc1Cl (stereo not shown) [I.1-2],90

# Tested on: Lolium rigidum
# Experiment: as above
# Format: in vivo
# Settings: application rate 80 g/ha, scored visually after about 3 weeks vs untreated controls
# In short: as §2
row,SMILES,Lolium rigidum (Efficacy in %) [%]
1,CCOCCOC(=O)C(C)Sc1cc(-n2c(=O)cc(C(F)(F)F)n(C)c2=O)c(F)cc1Cl (stereo not shown) [I.1-2],100

# Tested on: Digitaria sanguinalis
# Experiment: as above
# Format: in vivo
# Settings: application rate 80 g/ha
# In short: as §2
row,SMILES,Digitaria sanguinalis (Efficacy in %) [%]
1,CCOCCOC(=O)C(C)Sc1cc(-n2c(=O)cc(C(F)(F)F)n(C)c2=O)c(F)cc1Cl (stereo not shown) [I.1-2],100

# Tested on: Stellaria media
# Experiment: as above
# Format: in vivo
# Settings: application rate 80 g/ha, scored visually after about 3 weeks vs untreated controls
# In short: as §2
row,SMILES,Stellaria media (Efficacy in %) [%]
1,CCOCCOC(=O)C(C)Sc1cc(-n2c(=O)cc(C(F)(F)F)n(C)c2=O)c(F)cc1Cl (stereo not shown) [I.1-2],100

# Tested on: Pharbitis purpurea
# Experiment: as above
# Format: in vivo
# Settings: application rate 80 g/ha
# In short: as §2
row,SMILES,Pharbitis purpurea (Efficacy in %) [%]
1,CCOCCOC(=O)C(C)Sc1cc(-n2c(=O)cc(C(F)(F)F)n(C)c2=O)c(F)cc1Cl (stereo not shown) [I.1-2],100
